Experimental data from patent publication US7825256B2, “Inducible nitric oxide synthase dimerization inhibitors” (Kalypsys, Inc., priority 2004, dated 2010).
Counter-ions that a name gives are not always drawn.

Molecular target: T1, hiNOS (Homo sapiens, UniProt P35228)
T1 construct: expressed in transfected cells; host or cells: HEK293
Assay: DAN assay, hiNOS expressed in transiently transfected HEK293 cells
Assay type: cell-based
Settings: HEK293 cells transiently transfected with hiNOS
Description: The source of nitric oxide synthase (NOS) enzyme can be generated in several ways including induction of endogenous iNOS using cytokines and/or lipopolysaccharide (LPS) in various cell types known in the art. Alternatively, the gene encoding the enzyme can be cloned and the enzyme can be generated in cells via heterologous expression from a transient or stable expression plasmid with suitable features for protein expression as are known in the art. Enzymatic activity (nitric oxide production) is calcium independent for iNOS, while the constitutive NOS isoforms, nNOS and eNOS, become active with the addition of various cofactors added to cellular media or extract as are well known in the art. Enzymes specified in Table 1 were expressed in HEK293 cells transiently transfected with the indicated NOS isoform.
A major metabolic pathway for nitric oxide is to nitrate and nitrite, which are stable metabolites within tissue culture, tissue, plasma, and urine (S Moncada, A Higgs, N Eng J Med 329, 2002 (1993)).
The level of nitrate or nitrite in the specimen can be quantified by any method known in the art which provides adequate sensitivity and reproducibility. A variety of protocols have also been described for detecting and quantifying nitrite and nitrate levels in biological fluids by ion chromatography (e.g., S A Everett et al., J. Chromatogr. 706, 437 (1995); J M Monaghan et al., J. Chromatogr. 770, 143 (1997)), high-performance liquid chromatography (e.g., M Kelm et al., Cardiovasc. Res. 41, 765 (1999)), and capillary electrophoresis (M A Friedberg et al., J. Chromatogr. 781, 491 (1997)). For example, 2,3-diaminonaphthalene reacts with the nitrosonium cation that forms spontaneously from NO to form the fluorescent product […]. Using 2,3-diaminonaphthalene (“DAN”), researchers have developed a rapid, quantitative fluorometric assay that can detect from 10 nM to 10 μM nitrite and is compatible with a multi-well microplate format. […] DAN reacts with nitrite ion and gives fluorescent […] (M C Carré et al., Analysis 27, 835-838 (1999)). Table 1 provides the test results of various compounds of the subject invention using the DAN assay.
A specimen can be processed prior to determination of nitrate or nitrite as required by the quantification method, or in order to improve the results, or for the convenience of the investigator. For example, processing can involve centrifuging, filtering, or homogenizing the sample. If the sample is whole blood, the blood can be centrifuged to remove cells and the nitrate or nitrite assay performed on the plasma or serum fraction. If the sample is tissue, the tissue can be dispersed or homogenized by any method known in the art prior to determination of nitrate or nitrite. It may be preferable to remove cells and other debris by centrifugation or another method and to determine the nitrate or nitrite level using only the fluid portion of the sample, or the extracellular fluid fraction of the sample. The sample can also be preserved for later determination, for example by freezing of urine or plasma samples. When appropriate, additives may be introduced into the specimen to preserve or improve its characteristics for use in the nitrate or nitrite assay.
The “level” of nitrate, nitrite, or other NO-related product usually refers to the concentration (in moles per liter, micromoles per liter, or other suitable units) of nitrate or nitrite in the specimen, or in the fluid portion of the specimen. However, other units of measure can also be used to express the level of nitrate or nitrite. For example, an absolute amount (in micrograms, milligrams, nanomoles, moles, or other suitable units) can be used, particularly if the amount refers back to a constant amount (e.g., grams, kilograms, milliliters, liters, or other suitable units) of the specimens under consideration. A number of commercially available kits can be used.

`Cc1cc(C2CCCN2CCN(C)Cc2ccc3c(c2)OCCO3)nc(-n2ccnc2)n1` (centres unmarked) [Example 93, (2,3-Dihydro-benzo[1,4]dioxin-6-ylmethyl)-{2-[2-(2-imidazol-1-yl-6-methyl-pyrimidin-4-yl)-pyrrolidin-1-yl]-ethyl}-methyl-amine] was tested. Which EC50 did it give?
The EC50 was less than 1000 nM.

How did the EC50 turn out when `Cc1cc(CNC(=O)C2CCCN2Cc2ccc(OC(C)C)cc2)nc(-n2ccnc2)n1` (centres unmarked) [Example 115, 1-(4-Isopropoxy-benzyl)-pyrrolidine-2-carboxylic acid (2-imidazol-1-yl-6-methyl-pyrimidin-4-ylmethyl)-amide] was run?
Its EC50 is greater than 50000 nM.

How did the EC50 turn out when `Cc1cc(C(C)NCCNCc2ccc3c(c2)OCCO3)nc(-n2ccnc2)n1` (centres unmarked) [Example 45, N-(2,3-Dihydro-benzo[1,4]dioxin-6-ylmethyl)-N′-[1-(2-imidazol-1-yl-6-methyl-pyrimidin-4-yl)-ethyl]-ethane-1,2-diamine] was run?
Its EC50 is less than 1000 nM.

Which EC50 does the source give for `O=C(NCCc1ccc2c(c1)OCO2)[C@@H]1C[C@@H](O)CN1c1nc(-n2ccnc2)ns1` [Example 27, (2S,4R)-4-Hydroxy-1-(3-imidazol-1-yl-[1,2,4]thiadiazol-5-yl)-pyrrolidine-2-carboxylic acid (2-benzo[1,3]dioxol-5-yl-ethyl)amide] here?
Its EC50 is less than 1000 nM.

Which EC50 does the source give for `CSc1ccc(CN(CCCNCc2ccc3c(c2)OCO3)c2nc(-n3ccnc3)ns2)cc1` [Example 104, N′-Benzo[1,3]dioxol-5-ylmethyl-N-(3-imidazol-1-yl-[1,2,4]thiadiazol-5-yl)-N-(4-methylsulfanyl-benzyl)-propane-1,3-diamine] here?
The EC50 was less than 1000 nM.

How did the EC50 turn out when `COc1ccc(CNCCNC(C)c2cc(C)nc(-n3ccnc3)n2)cc1O` (centres unmarked) [Example 100, 5-({2-[1-(2-Imidazol-1-yl-6-methyl-pyrimidin-4-yl)-ethylamino]-ethylamino}-methyl)-2-methoxy-phenol] was run?
The EC50 was less than 50000 nM.

For `CCOC(=O)CN(Cc1cc(C)nc(-n2ccnc2)n1)C(=O)NCCc1ccc2c(c1)OCO2` [Example 69, [3-(2-Benzo[1,3]dioxol-5-yl-ethyl)-1-(2-imidazol-1-yl-6-methyl-pyrimidin-4-ylmethyl)-ureido]-acetic acid ethyl ester], which EC50 is on record?
Its EC50 is less than 1000 nM.

For `Cc1cc(C(C)NCCNCc2ccc(-n3cccc3)cc2)nc(-n2ccnc2)n1` (centres unmarked) [Example 97, N-[1-(2-Imidazol-1-yl-6-methyl-pyrimidin-4-yl)-ethyl]-N′-(4-pyrrol-1-yl-benzyl)-ethane-1,2-diamine], which EC50 is on record?
The EC50 was less than 50000 nM.

Which EC50 does the source give for `CN(CCN1CCCC1c1nc(-n2ccnc2)ns1)Cc1ccc2c(c1)OCO2` (centres unmarked) [Example 89, Benzo[1,3]dioxol-5-ylmethyl-{2-[2-(3-imidazol-1-yl-[1,2,4]thiadiazol-5-yl)-pyrrolidin-1-yl]-ethyl}-methyl-amine] here?
Its EC50 is less than 1000 nM.

How did the EC50 turn out when `CNC(=O)C(CCCNCc1ccc2c(c1)OCO2)c1nc(-n2ccnc2)ns1` (centres unmarked) [Example 40, 5-[(Benzo[1,3]dioxol-5-ylmethyl)-amino]-2-(3-imidazol-1-yl-[1,2,4]thiadiazol-5-yl)-pentanoic acid methylamide] was run?
The EC50 was less than 1000 nM.

How did the EC50 turn out when `CN(CC1CCN(Cc2ccc3c(c2)OCO3)C1)c1nc(-n2ccnc2)ns1` (centres unmarked) [Example 46, (1-Benzo[1,3]dioxol-5-ylmethyl-pyrrolidin-3-ylmethyl)-(3-imidazol-1-yl-[1,2,4]thiadiazol-5-yl)-methyl-amine] was run?
The EC50 was less than 1000 nM.

`CC(=O)Oc1ccc(CN(CCCN(C)c2nc(-n3ccnc3)ns2)Cc2ccc(OC(C)=O)cc2)cc1` [Example 35, Acetic acid 4-[((4-acetoxy-benzyl)-{3-[(3-imidazol-1-yl-[1,2,4]thiadiazol-5-yl)-methyl-amino]-propyl}-amino)-methyl]-phenyl ester] was tested. Which EC50 did it give?
Its EC50 is less than 1000 nM.

How did the EC50 turn out when `COc1ccc(CNCCNC(C)c2cc(C)nc(-n3ccnc3)n2)cc1F` (centres unmarked) [Example 98, N-(3-Fluoro-4-methoxy-benzyl)-N′-[1-(2-imidazol-1-yl-6-methyl-pyrimidin-4-yl)-ethyl]-ethane-1,2-diamine] was run?
The EC50 was less than 1000 nM.

With `Cc1cc(C2CCCN2CCNCc2ccc3c(c2)OCO3)nc(-n2ccnc2)n1` (centres unmarked) [Example 39, Benzo[1,3]dioxol-5-ylmethyl-{2-[2-(2-imidazol-1-yl-6-methyl-pyrimidin-4-yl)-pyrrolidin-1-yl]-ethyl}-amine] as the compound, how does the EC50 read?
Its EC50 is less than 1000 nM.

How did the EC50 turn out when `CN(CCCNCc1ccc(Cl)cc1)c1nc(-n2ccnc2)ns1` [Example 7, N′-(4-Chloro-benzyl)-N-(3-imidazol-1-yl-[1,2,4]thiadiazol-5-yl)-N-methyl-propane-1,3-diamine] was run?
The EC50 was less than 50000 nM.

Which EC50 does the source give for `CN(CCNCCc1ccc2c(c1)OCCO2)c1nc(-n2ccnc2)ns1` [Example 83, N′-[2-(2,3-Dihydro-benzo[1,4]dioxin-6-yl)-ethyl]-N-(3-imidazol-1-yl-[1,2,4]thiadiazol-5-yl)-N-methyl-ethane-1,2-diamine] here?
The EC50 was less than 1000 nM.

For `Cc1cc(C(C)(C)C(=O)NCCNCc2ccc3c(c2)OCO3)nc(-n2ccnc2)n1` [Example 66, N-{2-[(Benzo[1,3]dioxol-5-ylmethyl)-amino]-ethyl}-2-(2-imidazol-1-yl-6-methyl-pyrimidin-4-yl)-isobutyramide], which EC50 is on record?
Its EC50 is less than 1000 nM.

`Cc1cc(CNC(=O)C2CCCN2Cc2ccccn2)nc(-n2ccnc2)n1` (centres unmarked) [Example 109, 1-Pyridin-2-ylmethyl-pyrrolidine-2-carboxylic acid (2-imidazol-1-yl-6-methyl-pyrimidin-4-ylmethyl)-amide] was tested. Which EC50 did it give?
Its EC50 is greater than 50000 nM.

Which EC50 does the source give for `Cc1cc(C2CCC(=O)N2CCNCc2ccc3c(c2)OCCO3)nc(-n2ccnc2)n1` (centres unmarked) [Example 139, 1-{2-[(2,3-Dihydro-benzo[1,4]dioxin-6-ylmethyl)-amino]-ethyl}-5-(2-imidazol-1-yl-6-methyl-pyrimidin-4-yl)-pyrrolidin-2-one hydrochloride] here?
Its EC50 is less than 1000 nM.

With `Cc1cc(C(C)(C)CCC(=O)NCc2ccc3c(c2)OCO3)nc(-n2ccnc2)n1` [Example 75, 4-(2-(1H-Imidazol-1-yl)-6-methylpyrimidin-4-yl)-N-(benzo[d][1,3]dioxol-5-ylmethyl)-4-methylpentanamide] as the compound, how does the EC50 read?
The EC50 was less than 1000 nM.

With `Cc1cc(C(C)NCCN(C)Cc2ccc3c(c2)OCO3)nc(-n2ccnc2)n1` (single isomer, unassigned) [Example 130, N-Benzo[1,3]dioxol-5-ylmethyl-N′-[1-(2-imidazol-1-yl-6-methyl-pyrimidin-4-yl)-ethyl]-N-methyl-ethane-1,2-diamine] as the compound, how does the EC50 read?
The EC50 was less than 1000 nM.

With `CN(CCCN(C)c1nc(-n2ccnc2)ns1)CCc1ccc2c(c1)OCCO2` [Example 86, N-[2-(2,3-Dihydro-benzo[1,4]dioxin-6-yl)-ethyl]-N′-(3-imidazol-1-yl-[1,2,4]thiadiazol-5-yl)-N,N′-dimethyl-propane-1,3-diamine] as the compound, how does the EC50 read?
Its EC50 is less than 1000 nM.

With `Cc1cc(CNC(=O)C2CCCN2Cc2ccc(OCCO)cc2)nc(-n2ccnc2)n1` (centres unmarked) [Example 117, 1-[4-(2-Hydroxy-ethoxy)-benzyl]-pyrrolidine-2-carboxylic acid (2-imidazol-1-yl-6-methyl-pyrimidin-4-ylmethyl)-amide] as the compound, how does the EC50 read?
Its EC50 is greater than 50000 nM.

How did the EC50 turn out when `Cc1cc(C2C(c3nccs3)CCN2CCNCc2ccc3c(c2)OCO3)nc(-n2ccnc2)n1` (centres unmarked) [Example 140, Benzo[1,3]dioxol-5-ylmethyl-{2-[2-(2-imidazol-1-yl-6-methyl-pyrimidin-4-yl)-3-thiazol-2-yl-pyrrolidin-1-yl]-ethyl}-amine] was run?
The EC50 was less than 1000 nM.

For `c1cn(-c2nsc(N(CCCNCc3ccc4c(c3)OCO4)Cc3nnn[nH]3)n2)cn1` [Example 61, N′-Benzo[1,3]dioxol-5-ylmethyl-N-(3-imidazol-1-yl-[1,2,4]thiadiazol-5-yl)-N-(1H-tetrazol-5-ylmethyl)-propane-1,3-diamine], which EC50 is on record?
The EC50 was less than 1000 nM.

For `Cc1cc(CNC(=O)C2CCCN2Cc2ccsc2)nc(-n2ccnc2)n1` (centres unmarked) [Example 119, 1-Thiophen-3-ylmethyl-pyrrolidine-2-carboxylic acid (2-imidazol-1-yl-6-methyl-pyrimidin-4-ylmethyl)-amide], which EC50 is on record?
Its EC50 is greater than 50000 nM.
